Laboratory results: patent US7368232B2, “High-throughput assay for virus entry and drug screening” (priority 2003, dated 2008)

How the values were obtained:
[1] = system: VSV-G pseudotyped virus; assay type: cell-based, vesicular stomatitis virus
[2] = system: VSV-G pseudotyped virus containing env-luc1; assay type: cell-based, vesicular stomatitis virus
[3] = system: Friend MLV containing env-luc1; assay type: cell-based, Friend murine leukemia virus
[4] = system: VSV env pseudotyped virus; assay type: cell-based, Vesicular Stomatitis Virus
[5] = system: Rabies env pseudotyped virus; assay type: cell-based
[6] = system: MLV env pseudotyped virus; assay type: cell-based, murine leukemia virus
[7] = system: Ebola env pseudotyped virus; assay type: cell-based

| SMILES | reduction of infection (β-galactosidase infection assay) [1] | decrease of luciferase entry signal [2] | effect on luciferase entry signal [2] | effect on luciferase entry signal [3] | effect on luciferase activities in the viral entry assay [4] | effect on luciferase activities in the viral entry assay [5] | effect on luciferase activities in the viral entry assay [6] | effect on entry of Ebola virus env pseudotyped particles [7] |
| --- | --- | --- | --- | --- | --- | --- | --- | --- |
| CCN(CC)CCCC(C)Nc1ccnc2cc(Cl)ccc12 (stereo not shown) [chloroquine] | 20 fold | 7 fold | inhibited the signal | only weakly affected | – | – | – | – |
| CO/C1=C\C(C)=C\[C@@H](C)[C@@H](O)[C@@H](C)C/C(C)=C/C=C/[C@H](OC)[C@@H]([C@@H](C)[C@@H](O)[C@H](C)[C@@]2(O)C[C@@H](O)[C@H](C)[C@@H](C(C)C)O2)OC1=O [bafilomycin A1] | 100 fold | – | inhibited the signal | only weakly affected | completely inhibit | completely inhibit | little effect | significantly inhibited |
| Cl.N [ammonium chloride] | – | – | inhibited the signal | only weakly affected | completely inhibit | completely inhibit | – | significantly inhibited |
